From patent US6670339B1, “Use of sulfated oligosaccharides in lowering blood triglyceride levels” (The Australian National University, priority 1997, dated 2003)

Assays:
Type in all cases: in vivo, CBA/h female mice
[1] = test system: blood triglyceride levels; assay: Blood triglyceride levels in mice after alternate daily s.c. injection; details: 50 mg/kg s.c. on alternate days, 4 injections, 24 hours after last injection; control 1.11±0.1
Method: Thus, 10 CBA/h female mice 8-10 weeks old were weighed and divided into two groups of 5 mice each based on weight. Mice in the control group were injected with sterile normal saline solution 100 μl s.c. on alternate days for a total of 4 injections. Mice in the treatment group were injected with the sulfated mannopentaose phosphate at a dose of 50 mg/kg s.c. on alternate days for a total of 4 injections. Twenty-four hours following the last injection, blood (50 μl) was collected from the tail veins of each animal and assayed for triglyceride levels (Sigma, Triglyceride—GPO-Trinder). Blood triglyceride levels in the control group averaged 1.11±0.1 mM and blood triglyceride levels in the treatment group averaged 0.64±0.04 mM.

[2] = test system: blood triglyceride levels; assay: Blood triglyceride levels in mice under continuous infusion by mini-osmotic pump
Method: Thus, 10 CBA/h female mice 8-10 weeks old were weighed and divided into two groups of 5 mice each based on weight. Mice in the control group were implanted subcutaneously with a mini-osmotic pump (Alzet 2001) containing sterile normal saline solution. Mice in the treatment group were implanted subcutaneously with a mini-osmotic pump containing the sulfated mannopentaose phosphate which delivered the sulfated mannopentaose phosphate at a dose of 50 mg/kg/day. At the end of the 7 day period over which the mini-osmotic pumps delivered their payload, blood (50 μl) was collected from the tail veins of mice from both groups and assayed for triglycerides (Sigma, Triglyceride—GPO-Trinder). Triglyceride levels in the blood from mice in the control group averaged 1.49±0.23 mM and triglyceride levels in the blood of mice in the treatment group averaged 1.01±0.07 mM. One week following the treatment period, blood triglyceride levels were measured again in each group and levels in the treatment group had returned to normal, or those approximating the control group. Thus, at this point levels of triglycerides in the blood of mice in the control group averaged 1.29±0.08 mM and levels of triglycerides in the blood of mice in the treatment group averaged 1.27±0.06 mM.

[3] = test system: serum triglyceride levels; assay: Time course of serum triglyceride levels in mice after a single s.c. dose; details: single 50 mg/kg s.c.
Method: FIG. 1. Time course of the effect of a single s.c. dose (50 mg/kg) of sulfated mannopentaose phosphate (PI-88) on serum triglyceride levels, as measured by the Sigma triglyceride assay. Data presented as group means±SEM (n=4).
Thus, 32 CBA/h female mice 8-10 weeks old were weighed and placed into eight groups, containing four mice each based on weight. The control group was injected with sterile normal saline solution 100 μl s.c. All the treatment groups were injected with sulfated mannopentaose at a dose of 50 mg/kg s.c. in a volume of 100 μl of sterile normal saline solution. At 0.5, 1, 2, 3, 6, 24 and 48 hours following injection mice were anaesthetised and blood was collected via cardiac puncture and allowed to clot and serum triglyceride levels were measured using a commercially available kit (Sigma, Triglyceride—GPO-Trinder).

[4] = test system: serum triglyceride levels; assay: Serum triglyceride lowering by glycosaminoglycans and sulfated oligosaccharides in mice; details: 50 mg/kg s.c., 2 hours after injection
Method: FIG. 3. Ability of different glycosaminoglycans and sulfated oligosaccharides to lower serum triglyceride levels in CBA mice. Compounds were injected s.c. at a dose of 50 mg/kg, blood samples taken 2 hours later and assayed for triglyceride content. Each histogram is the mean±SEM (n=3) for each treatment.
Mice (CBA/h female mice 8-10 weeks old) were injected s.c. with a range of glycosaminoglycans and sulfated oligosaccharides at a dose of 50 mg/kg and 2 hours later mice were anaesthetised, blood was collected via cardiac puncture and allowed to clot and serum triglyceride levels measured using a commercially available kit (Sigma, Triglyceride—GPO-Trinder). […] The only other compound with some activity was suramin, a sulfonated compound which has previously been used as an angiogenesis and heparanase inhibitor.

## sulfated mannopentaose phosphate [PI-88 (15 SO4/molecule)]
[1]
  blood triglyceride levels: 0.64 ± 0.04 mM
[2]; 50 mg/kg/day by s.c. mini-osmotic pump, end of 7 day period, control 1.49±0.23
  triglyceride levels in the blood: 1.01 ± 0.07 mM
[2]; one week following the 7 day infusion of 50 mg/kg/day, control 1.29±0.08
  triglyceride levels in the blood: 1.27 ± 0.06 mM
[3]
  time to significant reduction in blood triglyceride levels: ≤ 0.5 h
  time until which triglyceride levels continued to fall (maximum lowering): 2 h
[3]; 6 hours after injection
  triglyceride levels versus controls, in words: significantly lower than controls
[3]; 24 hour time point
  triglyceride levels versus controls, in words: returning to normal
[4]
  effect on serum triglyceride levels, in words: lowered serum triglyceride levels
